{
  "source": "patent US10869924B2",
  "about": "“PD-L1 antagonist combination treatments” (MERCK PATENT GMBH, priority 2015, dated 2020)",
  "tested_on": "MC38 tumors",
  "test": "Flow cytometry of tumor-infiltrating lymphocytes from MC38 tumors after treatment (Example 3)",
  "type": "in vivo, mouse",
  "settings": "TILs isolated from MC38 tumors after treatment",
  "description": "Antibodies used for cell surface or intracellular staining were purchased from BD Biosciences or eBioscience. They were rat anti-mouse CD4-PerCP-Cy5.5 (clone RM4-5, BD Biosciences), rat anti-mouse CD8a-APC-H7 (clone 53-6.7, BD Biosciences), rat anti-mouse CD25-PE-Cy7 (clone PC61, BD Biosciences), rat anti-mouse CD45-BV510 (clone 30-F11, BD Biosciences), rat anti-mouse CD90.2-FITC (clone 53-2.1, BD Biosciences), rat anti-mouse Eomes-PE (clone: Dan11mag, eBioscience), rat anti-mouse FoxP3-eFluor450 (clone FJK-16s, eBioscience), and rat anti-mouse NKp46-BV421 or -AF647 (clone 29A1.4, BD Biosciences). Live cells were separated from dead cells using LIVE/DEAD Fixable Blue Dead Cell Stain Kit (Invitrogen). […]\nAn aliquot of cells was pre-incubated with 10 μg/mL of mouse BD Fc Block (BD Biosciences) for 10 minutes before phenotyping mAbs were added to specifically stain immune cells. […] After removing unbound mAbs, cells were washed twice with FACS staining buffer, fixed in fixative buffer (PBS+2% FBS+1% paraformaldehyde), and stored at 4° C. in the dark until analyzed by flow cytometry. […] Flow cytometry data were acquired using LSR Fortessa (BD Biosciences) and analyzed using FlowJo (TreeStar Inc.).\nResults were expressed as mean±SEM. […]\nTumor-infiltrating lymphocytes (TILs) were isolated from MC38 tumors after treatment and analyzed for markers associated with anti-tumor immune response. […]",
  "data": [
    {"substance": "Avelumab: fully human mAb of the IgG1 isotype that specifically targets and blocks PD-L1", "values": [
      {"measurement": "ratio of CD8+ T cells/regulatory T cell (Treg)", "setting": "FIG. 2", "result": 2.5},
      {"measurement": "T-cell frequency (of CD45+ cells) in tumors", "setting": "average, FIG. 1", "result": 36, "unit": "%"}
    ]}
  ]
}
